Reference: patent US20200078468A1, “NEUROTENSIN RECEPTOR BINDING CONJUGATES AND FORMULATIONS THEREOF” (priority 2016, published 2020)
Read-outs that look alike come from different tables or passages of the source. Numbered stars: 1 amine (or outer) side, 2 acyl side, 3 side chain; on linkers, the order of the positions; unused ones are H or OH. Bridge positions count the residues as written; N and C are the ends. Square brackets hold non-standard residues; d marks the D form. Peptide text beside a SMILES is read from it. I, II: the chains in the order shown. * marks the point of attachment. SN38(20-O) = CCc1c2c(nc3ccc(O)cc13)-c1cc3c(c(=O)n1C2)COC(=O)[C@@]3(CC)O*; Hexanoyl(6-succinimido-3yl) = O=C1CC([*:1])C(=O)N1CCCCCC(=O)[*:2]; NMeR = CN[C@@H](CCCNC(=N)N)C(=O)O; Pen = CC(C)(S)[C@H](N)C(=O)O; Tle = CC(C)(C)[C@H](N)C(=O)O

Test system: SW48 (human colon cancer cells)
Test: inhibition of SW48 cell proliferation (CellTiter Glo)
Assay type: cell-based
Details: 72 hrs, read-out: SW-48 proliferation IC50
Procedure: Conjugates were assessed in an in vitro assay evaluating inhibition of cell proliferation. SW48 (human colon cancer cells, ATCC®), cells were plated in 96 well, flat-bottomed plates (Costar) at a concentration of 5,000 cells/well. Cells were then incubated at 37° C. with 5% CO2 for 24 hrs. After 24 hrs, cells were treated with 0.01% DMSO or compound. Compounds were added at a starting dose of 10 μM and three fold serial dilutions were done for a total often points. Following compound addition, cells were incubated at 37° C. with 5% CO2 for 72 hrs. Proliferation was measured by CellTiter Glo reagent using the standard protocol (Promega) and a Glomax multi+detection system (Promega). Percent proliferation inhibition was calculated using the following formula: % inhibition=(control−treatment)/control*100. Control is defined as vehicle alone. IC50 curves were generated using the nonlinear regression analysis (four parameter) with GraphPad Prism 6.
Conjugates are assessed for receptor-dependent cytotoxicity by the difference between an NTSR1-targeting conjugate, and the corresponding conjugate with the same linker moiety and active agent where the NTSR1-targeting domain has been scrambled.

Structure (SMILES)	IC50 (NTSR1 targeted compound) [µM]	IC50 (NTSR1 scrambled compound) [µM]
CCc1c2c(nc3ccc(O)cc13)-c1cc3c(c(=O)n1C2)COC(=O)[C@@]3(CC)OC(=O)CNC(=O)CNC(=O)[C@H](CC(C)C)NC(=O)[C@H](Cc1ccccc1)NC(=O)CNC(=O)CCCCCN1C(=O)CC(SC(C)(C)[C@H](NC(C)=O)C(=O)N2CCC[C@H]2C(=O)N[C@@H](CCCNC(=N)N)C(=O)N(C)[C@@H](CCCNC(=N)N)C(=O)N2CCC[C@H]2C(=O)N[C@@H](Cc2ccc(O)cc2)C(=O)N[C@H](C(=O)N[C@@H](CC(C)C)C(=O)O)C(C)(C)C)C1=O (stereo partly drawn) [Compound 66] (I: Ac-[Pen]PR[NMeR]PY[Tle]L-OH / II: GFLGG-{SN38(20-O)}; linker I:1-II:N via Hexanoyl(6-succinimido-3yl))	0.694	–
CCc1c2c(nc3ccc(O)cc13)-c1cc3c(c(=O)n1C2)COC(=O)[C@@]3(CC)OC(=O)CNC(=O)CNC(=O)[C@H](CC(C)C)NC(=O)[C@H](Cc1ccccc1)NC(=O)CNC(=O)CCCCCN1C(=O)CC(SC(C)(C)[C@H](NC(C)=O)C(=O)N2CCC[C@H]2C(=O)N(C)[C@@H](CCCNC(=N)N)C(=O)N[C@@H](CCCNC(=N)N)C(=O)N2CCC[C@H]2C(=O)N[C@@H](Cc2ccc(O)cc2)C(=O)N[C@H](C(=O)N[C@@H](CC(C)C)C(=O)O)C(C)(C)C)C1=O (stereo partly drawn) [Compound 67] (I: Ac-[Pen]P[NMeR]RPY[Tle]L-OH / II: GFLGG-{SN38(20-O)}; linker I:1-II:N via Hexanoyl(6-succinimido-3yl))	0.816	–
CCc1c2c(nc3ccc(O)cc13)-c1cc3c(c(=O)n1C2)COC(=O)[C@@]3(CC)OC(=O)CNC(=O)CNC(=O)[C@H](CC(C)C)NC(=O)[C@H](Cc1ccccc1)NC(=O)CNC(=O)CCCCCN1C(=O)CC(SC(C)(C)[C@H](NC(C)=O)C(=O)N2CCC[C@H]2C(=O)N[C@@H](CCCCN)C(=O)N[C@@H](CCCNC(=N)N)C(=O)N2CCC[C@H]2C(=O)N[C@@H](Cc2ccc(O)cc2)C(=O)N[C@H](C(=O)N[C@@H](CC(C)C)C(=O)O)C(C)(C)C)C1=O (stereo partly drawn) [Compound 68] (I: Ac-[Pen]PKRPY[Tle]L-OH / II: GFLGG-{SN38(20-O)}; linker I:1-II:N via Hexanoyl(6-succinimido-3yl))	0.8	–
CC(=O)N[C@H](C(=O)N1CCC[C@H]1C(=O)N[C@@H](CC(C)C)C(=O)N1CCC[C@H]1C(=O)N[C@@H](CCCNC(=N)N)C(=O)N[C@H](C(=O)N[C@@H](CCCNC(=N)N)C(=O)N[C@@H](Cc1ccc(O)cc1)C(=O)O)C(C)(C)C)C(C)(C)SC1CC(=O)N(CCCCCC(=O)N[C@@H](Cc2ccccc2)C(=O)N[C@@H](CC(C)C)B2O[C@@H]3[C@@H]4C[C@H](C[C@]3(C)O2)C4(C)C)C1=O (some centres unmarked) [Compound 69]	–	> 10
CO[C@H]1C(=O)[C@]2(C)[C@@H](OC)C[C@H]3OC[C@@]3(OC(C)=O)[C@H]2[C@H](OC(=O)c2ccccc2)[C@]2(O)C[C@H](OC(=O)[C@H](OC(=O)CCCCCN3C(=O)CC(SC(C)(C)[C@H](NC(C)=O)C(=O)N4CCC[C@H]4C(=O)N[C@@H](CC(C)C)C(=O)N4CCC[C@H]4C(=O)N[C@@H](CCCNC(=N)N)C(=O)N[C@H](C(=O)N[C@@H](CCCNC(=N)N)C(=O)N[C@@H](Cc4ccc(O)cc4)C(=O)O)C(C)(C)C)C3=O)[C@@H](NC(=O)OC(C)(C)C)c3ccccc3)C(C)=C1C2(C)C (some centres unmarked) [Compound 72]	–	0.368
CO[C@H]1C(=O)[C@]2(C)[C@@H](OC)C[C@H]3OC[C@@]3(OC(C)=O)[C@H]2[C@H](OC(=O)c2ccccc2)[C@]2(O)C[C@H](OC(=O)[C@H](OC(=O)N(C)CCN(C)C(=O)OCc3ccc(NC(=O)[C@H](CCCNC(N)=O)NC(=O)[C@@H](NC(=O)CCCCCN4C(=O)CC(SC(C)(C)[C@H](NC(C)=O)C(=O)N5CCC[C@H]5C(=O)N[C@@H](CC(C)C)C(=O)N5CCC[C@H]5C(=O)N[C@@H](CCCNC(=N)N)C(=O)N[C@H](C(=O)N[C@@H](CCCNC(=N)N)C(=O)N[C@@H](Cc5ccc(O)cc5)C(=O)O)C(C)(C)C)C4=O)C(C)C)cc3)[C@@H](NC(=O)OC(C)(C)C)c3ccccc3)C(C)=C1C2(C)C (some centres unmarked) [Compound 73]	–	2.62
CO[C@H]1C(=O)[C@]2(C)[C@@H](OC)C[C@H]3OC[C@@]3(OC(C)=O)[C@H]2[C@H](OC(=O)c2ccccc2)[C@]2(O)C[C@H](OC(=O)[C@H](OC(=O)N(C)CCCNC(=O)CNC(=O)[C@H](CC(C)C)NC(=O)[C@H](Cc3ccccc3)NC(=O)CNC(=O)CCCCCN3C(=O)CC(SCCC(=O)NCCCC[C@H](NC(C)=O)C(=O)N4CCC[C@H]4C(=O)N[C@@H](CC(C)C)C(=O)N4CCC[C@H]4C(=O)N(C)[C@@H](CCCNC(=N)N)C(=O)N[C@H](C(=O)N[C@@H](CCCNC(=N)N)C(=O)N[C@@H](Cc4ccc(O)cc4)C(=O)O)C(C)(C)C)C3=O)[C@@H](NC(=O)OC(C)(C)C)c3ccccc3)C(C)=C1C2(C)C (some centres unmarked) [Compound 74]	–	> 10
COc1cc2cc(c1Cl)N(C)C(=O)C[C@H](OC(=O)[C@H](C)N(C)C(=O)CCSC1CC(=O)N(CCCNC(=O)CNC(=O)[C@H](CC(C)C)NC(=O)[C@H](Cc3ccccc3)NC(=O)CNC(=O)CCCCCN3C(=O)CC(SCCC(=O)NCCCC[C@H](NC(C)=O)C(=O)N4CCC[C@H]4C(=O)N[C@@H](CC(C)C)C(=O)N4CCC[C@H]4C(=O)N(C)[C@@H](CCCNC(=N)N)C(=O)N[C@H](C(=O)N[C@@H](CCCNC(=N)N)C(=O)N[C@@H](Cc4ccc(O)cc4)C(=O)O)C(C)(C)C)C3=O)C1=O)[C@]1(C)O[C@H]1[C@H](C)[C@@H]1C[C@@](O)(NC(=O)O1)[C@H](OC)/C=C/C=C(\C)C2 (some centres unmarked) [Compound 82]	–	0.435
COc1cc2cc(c1Cl)N(C)C(=O)C[C@H](OC(=O)[C@H](C)N(C)C(=O)CCSC1CC(=O)N(CCCNC(=O)CNC(=O)[C@H](CC(C)C)NC(=O)[C@H](Cc3ccccc3)NC(=O)CNC(=O)CCCCCN3C(=O)CC(SCCC(=O)NCCOCCOCCC(=O)NCCCC[C@H](NC(C)=O)C(=O)N4CCC[C@H]4C(=O)N[C@@H](CC(C)C)C(=O)N4CCC[C@H]4C(=O)N(C)[C@@H](CCCNC(=N)N)C(=O)N[C@H](C(=O)N[C@@H](CCCNC(=N)N)C(=O)N[C@@H](Cc4ccc(O)cc4)C(=O)O)C(C)(C)C)C3=O)C1=O)[C@]1(C)O[C@H]1[C@H](C)[C@@H]1C[C@@](O)(NC(=O)O1)[C@H](OC)/C=C/C=C(\C)C2 (some centres unmarked) [Compound 83]	–	1.83
COc1cc2cc(c1Cl)N(C)C(=O)C[C@H](OC(=O)[C@H](C)N(C)C(=O)CCSC1CC(=O)N(CCCNC(=O)CNC(=O)[C@H](CC(C)C)NC(=O)[C@H](Cc3ccccc3)NC(=O)CNC(=O)CCCCCN3C(=O)CC(SCCC(=O)NCCOCCOCCOCCOCCC(=O)NCCCC[C@H](NC(C)=O)C(=O)N4CCC[C@H]4C(=O)N[C@@H](CC(C)C)C(=O)N4CCC[C@H]4C(=O)N(C)[C@@H](CCCNC(=N)N)C(=O)N[C@H](C(=O)N[C@@H](CCCNC(=N)N)C(=O)N[C@@H](Cc4ccc(O)cc4)C(=O)O)C(C)(C)C)C3=O)C1=O)[C@]1(C)O[C@H]1[C@H](C)[C@@H]1C[C@@](O)(NC(=O)O1)[C@H](OC)/C=C/C=C(\C)C2 (some centres unmarked) [Compound 84]	–	0.0485
COc1cc2cc(c1Cl)N(C)C(=O)C[C@H](OC(=O)[C@H](C)N(C)C(=O)CCSC1CC(=O)N(CCCNC(=O)CNC(=O)[C@H](CC(C)C)NC(=O)[C@H](Cc3ccccc3)NC(=O)CNC(=O)CCCCCN3C(=O)CC(SCCC(=O)NCCOCCOCCOCCOCCOCCOCCOCCOCCC(=O)NCCCC[C@H](NC(C)=O)C(=O)N4CCC[C@H]4C(=O)N[C@@H](CC(C)C)C(=O)N4CCC[C@H]4C(=O)N(C)[C@@H](CCCNC(=N)N)C(=O)N[C@H](C(=O)N[C@@H](CCCNC(=N)N)C(=O)N[C@@H](Cc4ccc(O)cc4)C(=O)O)C(C)(C)C)C3=O)C1=O)[C@]1(C)O[C@H]1[C@H](C)[C@@H]1C[C@@](O)(NC(=O)O1)[C@H](OC)/C=C/C=C(\C)C2 (some centres unmarked) [Compound 85]	–	0.0595
COc1cccc2c1C(=O)c1c(O)c3c(c(O)c1C2=O)C[C@@](O)(C(=O)CO)C[C@@H]3O[C@H]1C[C@H](NC(=O)OCCSSC(C)(C)[C@H](NC(C)=O)C(=O)N2CCC[C@H]2C(=O)N[C@@H](CC(C)C)C(=O)N2CCC[C@H]2C(=O)N[C@@H](CCCNC(=N)N)C(=O)N[C@H](C(=O)N[C@@H](CCCNC(=N)N)C(=O)N[C@@H](Cc2ccc(O)cc2)C(=O)O)C(C)(C)C)[C@H](O)[C@H](C)O1 [Compound 88]	–	1.94
COc1cccc2c1C(=O)c1c(O)c3c(c(O)c1C2=O)C[C@@](O)(C(=O)CO)C[C@@H]3O[C@H]1C[C@H](NC(=O)OCc2ccc(NC(=O)[C@H](CCCNC(N)=O)NC(=O)[C@@H](NC(=O)CCCCCN3C(=O)CC(SC(C)(C)[C@H](NC(C)=O)C(=O)N4CCC[C@H]4C(=O)N[C@@H](CC(C)C)C(=O)N4CCC[C@H]4C(=O)N[C@@H](CCCNC(=N)N)C(=O)N[C@H](C(=O)N[C@@H](CCCNC(=N)N)C(=O)N[C@@H](Cc4ccc(O)cc4)C(=O)O)C(C)(C)C)C3=O)C(C)C)cc2)[C@H](O)[C@H](C)O1 (some centres unmarked) [Compound 89]	–	2.58
CC[C@H](C)[C@@H]([C@@H](CC(=O)N1CCC[C@H]1[C@H](OC)[C@@H](C)C(=O)N[C@H](C)[C@@H](O)c1ccccc1)OC)N(C)C(=O)[C@@H](NC(=O)[C@H](C(C)C)N(C)C(=O)OCc1ccc(NC(=O)[C@H](CCCNC(N)=O)NC(=O)[C@@H](NC(=O)CCCCCN2C(=O)CC(SCCC(=O)NCCOCCOCCC(=O)NCCCC[C@H](NC(C)=O)C(=O)N3CCC[C@H]3C(=O)N[C@@H](CC(C)C)C(=O)N3CCC[C@H]3C(=O)N(C)[C@@H](CCCNC(=N)N)C(=O)N[C@H](C(=O)N[C@@H](CCCNC(=N)N)C(=O)N[C@@H](Cc3ccc(O)cc3)C(=O)O)C(C)(C)C)C2=O)C(C)C)cc1)C(C)C (some centres unmarked) [Compound 94]	–	0.0525
